Assay results: patent US20190381086A1, “INHIBITION OF NEDDYLATION USING GLYCYL-tRNA SYNTHETASE INHIBITORS” (The Scripps Research Institute, priority 2015, published 2019)

What was measured:
SN12C = assay: NCI 60 Cell One-Dose Screen; assay type: cell-based, human; conditions: Renal Cancer, single dose 10^-5 M
MOLT-4 = assay: NCI 60 Cell One-Dose Screen; assay type: cell-based, human; conditions: MOLT-4, Leukemia; single dose 10^-5 M
MDA-MB-231/ATCC = assay: NCI 60 Cell One-Dose Screen; assay type: cell-based, human; conditions: Breast Cancer, single dose 10^-5 M
NCI-H460 = assay: NCI 60 Cell One-Dose Screen; assay type: cell-based, human; conditions: NCI-H460, Non-Small Cell Lung Cancer; single dose 10^-5 M
SW-620 [1] = assay: NCI 60 Cell One-Dose Screen; assay type: cell-based, human; conditions: SW-620, Colon Cancer; single dose 10^-5 M
CAKI-1 = assay: NCI 60 Cell One-Dose Screen; assay type: cell-based, human; conditions: CAKI-1, Renal Cancer; single dose 10^-5 M
NCI-H23 [2] = assay: NCI 60 Cell One-Dose Screen; assay type: cell-based, human; conditions: NCI-H23, Non-Small Cell Lung Cancer; single dose 10^-5 M
UO-31 = assay: NCI 60 Cell One-Dose Screen; assay type: cell-based, human; conditions: UO-31, Renal Cancer; single dose 10^-5 M
K-562 = assay: NCI 60 Cell One-Dose Screen; assay type: cell-based, human; conditions: K-562, Leukemia; single dose 10^-5 M
IGROV1 [3] = assay: NCI 60 Cell One-Dose Screen; assay type: cell-based, human; conditions: IGROV1, Ovarian Cancer; single dose 10^-5 M
ACHN = assay: NCI 60 Cell One-Dose Screen; assay type: cell-based, human; conditions: Renal Cancer, single dose 10^-5 M
RPMI-8226 = assay: NCI 60 Cell One-Dose Screen; assay type: cell-based, human; conditions: RPMI-8226, Leukemia; single dose 10^-5 M
BT-549 [4] = assay: NCI 60 Cell One-Dose Screen; assay type: cell-based, human; conditions: BT-549, Breast Cancer; single dose 10^-5 M
UACC-257 = assay: NCI 60 Cell One-Dose Screen; assay type: cell-based, human; conditions: UACC-257, Melanoma; single dose 10^-5 M
HCC-2998 [5] = assay: NCI 60 Cell One-Dose Screen; assay type: cell-based, human; conditions: HCC-2998, Colon Cancer; single dose 10^-5 M
HOP-62 = assay type: cell-based; conditions: HOP-62, Non-Small Cell Lung Cancer
NCI-H23 [6] = assay type: cell-based; conditions: NCI-H23, Non-Small Cell Lung Cancer
HT29 = assay type: cell-based; conditions: HT29, Colon Cancer
COLO 205 = assay type: cell-based; conditions: COLO 205, Colon Cancer
SW-620 [7] = assay type: cell-based; conditions: SW-620, Colon Cancer
SNB-19 = assay type: cell-based; conditions: SNB-19, CNS Cancer
IGROV1 [8] = assay type: cell-based; conditions: IGROV1, Ovarian Cancer
SK-OV-3 = assay type: cell-based; conditions: SK-OV-3, Ovarian Cancer
BT-549 [9] = assay type: cell-based; conditions: BT-549, Breast Cancer
U251 = assay type: cell-based; conditions: U251, CNS Cancer
A549/ATCC = assay type: cell-based; conditions: Non-Small Cell Lung Cancer
HCC-2998 [10] = assay type: cell-based; conditions: HCC-2998, Colon Cancer
SK-MEL-2 = assay type: cell-based; conditions: SK-MEL-2, Melanoma
MDA-MB-435 = assay type: cell-based; conditions: MDA-MB-435, Melanoma
NCI-H226 = assay type: cell-based; conditions: NCI-H226, Non-Small Cell Lung Cancer
SK-MEL-5 = assay type: cell-based; conditions: SK-MEL-5, Melanoma
[11] = Homo sapiens, read-out: LC50 (the source's name)

**Q.** How did the “Growth inhibition count (%)” value (SN12C) turn out when NCC(=O)NS(=O)(=O)OC[C@H]1O[C@@H](n2cnc3c(N)ncnc32)[C@H](O)[C@@H]1O [GlySA, glycylsulfamoyladenosine] was run?
**A.** 1.03%

**Q.** And the “Growth inhibition count (%)” value (MOLT-4)?
**A.** 1.146%

**Q.** What about the “Growth inhibition count (%)” value (MDA-MB-231/ATCC) of the same compound?
**A.** 2.608%

**Q.** What about the “Growth inhibition count (%)” value (NCI-H460) of the same compound?
**A.** 3.35%

**Q.** And the “Growth inhibition count (%)” value (SW-620 [1])?
**A.** 3.712%

**Q.** What about the “Growth inhibition count (%)” value (CAKI-1) of the same compound?
**A.** 5.11%

**Q.** What about the “Growth inhibition count (%)” value (NCI-H23 [2]) of the same compound?
**A.** 5.695%

**Q.** What about the “Growth inhibition count (%)” value (UO-31) of the same compound?
**A.** 6.084%

**Q.** What about the “Growth inhibition count (%)” value (K-562) of the same compound?
**A.** 7.376%

**Q.** And the “Growth inhibition count (%)” value (IGROV1 [3])?
**A.** 11.7%

**Q.** And the “Growth inhibition count (%)” value (ACHN)?
**A.** 11.79%

**Q.** And the “Growth inhibition count (%)” value (RPMI-8226)?
**A.** 18.04%

**Q.** And the “Growth inhibition count (%)” value (BT-549 [4])?
**A.** 21.06%

**Q.** And the “Growth inhibition count (%)” value (UACC-257)?
**A.** 27.43%

**Q.** What about the “Growth inhibition count (%)” value (HCC-2998 [5]) of the same compound?
**A.** 41.35%

**Q.** What about the LC50/GI50 (HOP-62) of the same compound?
**A.** >269.2

**Q.** What about the GI50 (HOP-62; Homo sapiens) of the same compound?
**A.** 372 nM

**Q.** And the CC50 (HOP-62; [11])?
**A.** > 100000 nM

**Q.** And the GI50 (NCI-H23 [6]; Homo sapiens)?
**A.** 2570 nM

**Q.** And the CC50 (NCI-H23 [6]; [11])?
**A.** > 100000 nM

**Q.** What about the LC50/GI50 (NCI-H23 [6]) of the same compound?
**A.** >38.9

**Q.** What about the LC50/GI50 (HT29) of the same compound?
**A.** >33.9

**Q.** And the GI50 (HT29; Homo sapiens, HT-29)?
**A.** 2950 nM

**Q.** What about the CC50 (HT29; Homo sapiens, HT-29, read-out: LC50 (the source's name)) of the same compound?
**A.** > 100000 nM

**Q.** And the LC50/GI50 (COLO 205)?
**A.** 28.2

**Q.** And the GI50 (COLO 205; Homo sapiens)?
**A.** 2290 nM

**Q.** What about the CC50 (COLO 205; [11]) of the same compound?
**A.** 64600 nM

**Q.** What about the GI50 (SW-620 [7]; Homo sapiens) of the same compound?
**A.** 3720 nM

**Q.** And the CC50 (SW-620 [7]; [11])?
**A.** > 100000 nM

**Q.** What about the LC50/GI50 (SW-620 [7]) of the same compound?
**A.** >26.9

**Q.** What about the GI50 (SNB-19; Homo sapiens) of the same compound?
**A.** 380 nM

**Q.** And the CC50 (SNB-19; [11])?
**A.** 6920 nM

**Q.** And the LC50/GI50 (SNB-19)?
**A.** 18.2

**Q.** What about the GI50 (IGROV1 [8]; Homo sapiens, IGROV-1) of the same compound?
**A.** 3020 nM

**Q.** What about the CC50 (IGROV1 [8]; Homo sapiens, IGROV-1, read-out: LC50 (the source's name)) of the same compound?
**A.** 47900 nM

**Q.** What about the LC50/GI50 (IGROV1 [8]) of the same compound?
**A.** 15.8

**Q.** What about the GI50 (SK-OV-3; Homo sapiens) of the same compound?
**A.** 2880 nM

**Q.** What about the CC50 (SK-OV-3; [11]) of the same compound?
**A.** 37200 nM

**Q.** What about the LC50/GI50 (SK-OV-3) of the same compound?
**A.** 12.9

**Q.** And the LC50/GI50 (BT-549 [9])?
**A.** 10.7

**Q.** And the GI50 (BT-549 [9]; Homo sapiens)?
**A.** 2340 nM

**Q.** What about the GI50 (U251; Homo sapiens, U-251) of the same compound?
**A.** 550 nM

**Q.** What about the CC50 (U251; Homo sapiens, U-251, read-out: LC50 (the source's name)) of the same compound?
**A.** 5750 nM

**Q.** And the LC50/GI50 (U251)?
**A.** 10.5

**Q.** And the GI50 (A549/ATCC; Homo sapiens)?
**A.** 2340 nM

**Q.** What about the CC50 (A549/ATCC; [11]) of the same compound?
**A.** 19000 nM

**Q.** What about the LC50/GI50 (A549/ATCC) of the same compound?
**A.** 8.1

**Q.** And the LC50/GI50 (HCC-2998 [10])?
**A.** 4.6

**Q.** And the GI50 (HCC-2998 [10]; Homo sapiens)?
**A.** 2040 nM

**Q.** And the CC50 (HCC-2998 [10]; [11])?
**A.** 9330 nM

**Q.** What about the GI50 (SK-MEL-2; Homo sapiens) of the same compound?
**A.** 2240 nM

**Q.** What about the CC50 (SK-MEL-2; [11]) of the same compound?
**A.** 10000 nM

**Q.** What about the LC50/GI50 (SK-MEL-2) of the same compound?
**A.** 4.5

**Q.** What about the GI50 (MDA-MB-435; Homo sapiens) of the same compound?
**A.** 1820 nM

**Q.** And the LC50/GI50 (MDA-MB-435)?
**A.** 3.6

**Q.** And the GI50 (NCI-H226; Homo sapiens)?
**A.** 2000 nM

**Q.** What about the CC50 (NCI-H226; [11]) of the same compound?
**A.** 7080 nM

**Q.** What about the LC50/GI50 (NCI-H226) of the same compound?
**A.** 3.5

**Q.** And the GI50 (SK-MEL-5; Homo sapiens)?
**A.** 1860 nM

**Q.** What about the LC50/GI50 (SK-MEL-5) of the same compound?
**A.** 3.2

**Q.** And the GI50 (MDA-MB-468; Homo sapiens, MDA-MB-468)?
**A.** 741 nM

**Q.** And the CC50 (MDA-MB-468; Homo sapiens, MDA-MB-468, read-out: LC50 (μM))?
**A.** 7.59 µM

**Q.** What about the LC50/GI50 (MDA-MB-468; MDA-MB-468, Breast Cancer) of the same compound?
**A.** 10.2
